The nature of data set [1]: Assay of kinetic solubility. The format is physicochemical. The settings on record: aqueous buffer, kinetic from dmso stock, pH 3.5 phosphate buffer, 25° C. The procedure:
The stock solutions of the test compound and the standard progesterone were prepared in DMSO at the concentration of 10 mM.
30 μL of stock solutions at 10 mM of the test compounds and standard substance were placed in order into their proper 96-well plate. 970 μL phosphate buffer at the specified pH was added to the proper vial of the sample plate. The assay was performed in duplicate. A stirring stick was added to each vial and the teflon/silicone plug was capped. The sample tray was then placed in the Eppendorf Thermomixer Comfort and shaken at 1100 RPM at 25° C. for 2 hours. After 2 hours, plugs were removed, a big magnet was used to remove the stirring sticks, and samples were transferred from the sample plate to the filter plate. Vacuum pump was used to create negative pressure and filtered the samples. Transferred 5 μL of the filtrate to the new sample plate, then added 5 μL DMSO and 490 μL water/acetonitrile (V/V=1/1) to dilute the solvent. The dilution factor may be adjusted according to the solubility values of the substances to be tested or the strength of its LC-MS signal response.
From the 10 mM DMSO stock solution, 15 μL of that was transferred into the empty plate and 485 μL DMSO was added to prepare a 300 μM standard solution. From the 300 μM standard solution plate, 5 μL of that was transferred to another empty plate and 5 μL phosphate buffer at specified pH and 490 μL water/acetonitrile (V/V=1/1) dilution solvent were added to the standard solution to get a final concentration of 3 μM. The concentration of the standard solution may be adjusted according to the strength of its LC-MS signal response.
The sample plate was placed into the sample tray of the automatic sampler and the samples were evaluated by LC-MS/MS analysis.
All calculations were carried out by Microsoft Excel.
The sample filtrate was analyzed and quantified against a standard of known concentrations using LC-MS spectral peaks to identify and quantify. The solubility values of the control drug and the compounds to be tested were calculated as the following formula: • [Sample]: concentration of the sample • AREASample: peak area of the sample • INJ VOLStd: standard sample injection volume • DFSample: sample dilution factor • [STD]: standard substance concentration • AREAStd: peak area of standard substance • INJ VOLSample: sample injection volume

For data set [2], the target named is hNav1.8 (Homo sapiens (Human), UniProt Q9Y5Y9). Kind of data set: Manual patch clamp, Method 1 (CHO cell line stably expressing hNav1.8). The format is cell-based. The settings on record: for inhibition at 0.1 µM: 100 nM; for inhibition at 0.1 µM / inhibition at 0.01 µM: read-out: Inhibition rate of hNav1.8; for IC50: Method 1, CHO-hNav1.8, manual patch clamp, resting state, read-out: IC50 inhibitory activity against hNav1.8. The text has this:
The patch clamp technique is known as the “gold standard” for studying ion channels, and it uses glass microelectrodes to seal the cell membrane to measure the currents of various membrane channel. […] Patch clamp technology can evaluate the inhibition strength of different compounds on different states of Navs by measuring the changes of membrane channel currents after different compounds bind to different states of Navs.
The representative compounds of the present invention used stable CHO or HEK293 cell lines transfected with specific ion channels to measure the effect of the compounds on Nav1.8 currents by manual patch clamp test, to evaluate their inhibition strength.
The assay protocol of manual patch clamp is as follows:
CHO cell lines with stable expression of hNav1.8 were cultured in F12 medium containing 10% fetal bovine serum at a constant temperature of 37° C., and the carbon dioxide concentration was maintained at 5%. The old culture medium was removed and washed once with PBS, then 1 mL 0.25%-Trypsin-EDTA solution was added and incubated at 37° C. for 1 min. When the cells were detached from the bottom of the dish, 5 mL of the complete medium preheated at 37° C. was added, and the aggregated cells were separated by gently blowing with a straw. The cell suspension was transferred into a sterile centrifuge tube and centrifuged at 1000 rpm for 5 min to collect cells. The cells were then inoculated into a cell culture dish with a diameter of 6 cm (2.5×10^5 cells/petri dish, 5 mL medium) for expansion or maintenance.
In order to maintain the electrophysiological activity of the cells, the cell density must be less than 80%.
The cells were separated with 0.25%-Trypsin-EDTA before the assay, and 5×10^3 cells were seeded on a cover slip and cultured in a 24-well plate (final volume: 500 μL) for 18 h. Then the assay was conducted.
The compounds prepared in the examples of the present invention were dissolved in dimethyl sulfoxide (DMSO) and prepared into DMSO stock solution with a concentration of 10 mM for assay. And it was diluted to various concentrations with extracellular solution (140 mM NaCl, 3.5 mM KCl, 1 mM MgCl2, 2 mM CaCl2), 10 mM Glucose, 10 mM HEPES, 1.25 mM NaH2PO4, pH=7.4 regulated by NaOH), and the final concentration of DMSO in each compound sample was 0.10% or less.
A capillary glass pipette (BF150-86-10, Sutter Instruments) was pulled into a recording electrode with a micropipette puller (P97, Sutter Instruments). The micromanipulator (MP285, Sutter Instruments) was manipulated under an inverted microscope (IX71, Olympus) to make the recording electrode contact the cell and negative pressure suction was applied to achieve a GQ seal. Then, rapid capacitance compensation was performed, and negative pressure was continued, cell membrane was broken by suction, and whole cell recording mode was formed. Then the slow capacitance was compensated and the membrane capacitance and series resistance were recorded without leakage compensation. When the whole cell recording current was stabilized, dosing was initiated, and the next concentration was detected after acting 5 minutes of each drug concentration. Multiple cells were independently repeated during the recording period. All electrophysiological assays were performed at room temperature. Specifically, 6 concentrations (measuring IC50) or 2 concentrations (preliminary screening) were set for each compound, and the percentage of inhibition of sodium channels was determined by calculating the relative percentage of peak current generated before and after each concentration compound treated cells, and the IC50 value or percentage of inhibition at a specific concentration was calculated using IGOR pro software.
(Patch clamp records ionic current or voltage across a cell membrane.)

Data set [3] is described as follows: Stability assay for human liver microsomes in vitro. In kind it is in vitro ADME. The settings on record: 1 μM compound, 0.5 mg/mL liver microsomes, read-out: Human liver microsome stability T1/2. The procedure:
• Human liver microsomes, purchased from Corning or Xenotech, stored in a −80° C. refrigerator. • Nicotinamide adenine dinucleotide phosphate (NADPH), Chem-impex international, 00616 • Control compounds: testosterone, diclofenac, propafenone
• Water bath (HH-60, Guohua, Changzhou, China) • Pipette workstation (PP-550DS, Apricot, Covina, USA) • Centrifuge (5810R, Eppendorf, Hamburg, Germany) • Mass Spectrometer (Sciex API 4000, Singapore) • High Performance Liquid Chromatography (LC 20-AD, Shimadzu, Kyoto, Japan) • Sampler (ADDA, Apricot Designs, California, USA)
• Stock solution: 10 mM in DMSO • Working solution concentration preparation: 10 mM stock solution was diluted to 100 μM with 100% acetonitrile (organic phase content: 99% ACN, 1% DMSO)
Two 96-well incubation plates were named T60 incubation plate and NCF60 incubation plate.
445 μL microsomal working solution (liver microsomal protein concentration: 0.56 mg/mL) was added to the T60 and NCF60 incubation plates respectively, then the incubation plates above were placed in a water bath at 37° C. for pre-incubation approximately 10 minutes.
After the pre-incubation finished, 5 μL of the test compound working solution was added to the T60 and NCF60 incubation plates respectively, and mixed well. 50 μL potassium phosphate buffer was added to each well on the NCF60 incubation plate to start the reaction. 180 μL termination solution (acetonitrile solution containing 200 ng/mL tolbutamide and 200 ng/mL labetalol) and 6 uL working solution of NADPH regeneration system were added to the TO termination plate, and 54 μL samples were removed from the T60 incubation plate to the TO termination plate (TO sample generated). The reaction was initiated by adding 44 μL of NADPH regenerating system working solution per well on the T60 incubation plate. Only 54 μL microsomal working solution, 6 uL NADPH regeneration system working solution, and 180 μL termination solution were added to the Blank plate. Therefore, in the samples of the test or control compounds, the final reaction concentration of the compounds, testosterone, diclofenac and propafenone was 1 μM, the concentration of the liver microsomes was 0.5 mg/mL, and the final concentration of DMSO and acetonitrile in the reaction system was 0.01% (v/v) and 0.99% (v/v), respectively.
After incubation for an appropriate time (e.g. 5, 10, 20, 30, and 60 minutes), 180 μL of termination solution (acetonitrile solution containing 200 ng/mL tolbutamide and 200 ng/mL labetalol) was added to the sample hole of each termination plate, respectively. After that, 60 μL sample was removed from the T60 incubation plate to terminate the reaction.
All sample plates were shaken evenly and centrifuged at 3220×g for 20 min. Then 80 μL supernatant was taken from each well and diluted to 240 μL pure water for LC-MS/MS analysis.
All samples were injected for analysis.
A general note: Liver microsomes are a subcellular fraction often used to study metabolism.

The target in data set [4] is Human Nav1.8 ion channel (Homo sapiens (Human), UniProt Q9Y5Y9). Kind of data set: Manual patch clamp, Method 2 (HEK293 cells stably expressing human Nav1.8, resting state). In kind it is cell-based. The settings on record: Method 2, HEK293-hNav1.8, resting state, 1 μM TTX; read-out: IC50 inhibitory activity against hNav1.8.

Data on ten compounds can be found in US20250115578A1, “AROMATIC FUSED RING NAV1.8 INHIBITOR, AND USE THEREOF” (CHENGDU KANGHONG PHARMACEUTICAL CO., LTD., priority 2022, published 2025).

Converted amounts (≈) assume the structure as drawn. Like-named read-outs stand apart in the source and are kept apart here.

hNav1.8, sequence (Q9Y5Y9 whole entry): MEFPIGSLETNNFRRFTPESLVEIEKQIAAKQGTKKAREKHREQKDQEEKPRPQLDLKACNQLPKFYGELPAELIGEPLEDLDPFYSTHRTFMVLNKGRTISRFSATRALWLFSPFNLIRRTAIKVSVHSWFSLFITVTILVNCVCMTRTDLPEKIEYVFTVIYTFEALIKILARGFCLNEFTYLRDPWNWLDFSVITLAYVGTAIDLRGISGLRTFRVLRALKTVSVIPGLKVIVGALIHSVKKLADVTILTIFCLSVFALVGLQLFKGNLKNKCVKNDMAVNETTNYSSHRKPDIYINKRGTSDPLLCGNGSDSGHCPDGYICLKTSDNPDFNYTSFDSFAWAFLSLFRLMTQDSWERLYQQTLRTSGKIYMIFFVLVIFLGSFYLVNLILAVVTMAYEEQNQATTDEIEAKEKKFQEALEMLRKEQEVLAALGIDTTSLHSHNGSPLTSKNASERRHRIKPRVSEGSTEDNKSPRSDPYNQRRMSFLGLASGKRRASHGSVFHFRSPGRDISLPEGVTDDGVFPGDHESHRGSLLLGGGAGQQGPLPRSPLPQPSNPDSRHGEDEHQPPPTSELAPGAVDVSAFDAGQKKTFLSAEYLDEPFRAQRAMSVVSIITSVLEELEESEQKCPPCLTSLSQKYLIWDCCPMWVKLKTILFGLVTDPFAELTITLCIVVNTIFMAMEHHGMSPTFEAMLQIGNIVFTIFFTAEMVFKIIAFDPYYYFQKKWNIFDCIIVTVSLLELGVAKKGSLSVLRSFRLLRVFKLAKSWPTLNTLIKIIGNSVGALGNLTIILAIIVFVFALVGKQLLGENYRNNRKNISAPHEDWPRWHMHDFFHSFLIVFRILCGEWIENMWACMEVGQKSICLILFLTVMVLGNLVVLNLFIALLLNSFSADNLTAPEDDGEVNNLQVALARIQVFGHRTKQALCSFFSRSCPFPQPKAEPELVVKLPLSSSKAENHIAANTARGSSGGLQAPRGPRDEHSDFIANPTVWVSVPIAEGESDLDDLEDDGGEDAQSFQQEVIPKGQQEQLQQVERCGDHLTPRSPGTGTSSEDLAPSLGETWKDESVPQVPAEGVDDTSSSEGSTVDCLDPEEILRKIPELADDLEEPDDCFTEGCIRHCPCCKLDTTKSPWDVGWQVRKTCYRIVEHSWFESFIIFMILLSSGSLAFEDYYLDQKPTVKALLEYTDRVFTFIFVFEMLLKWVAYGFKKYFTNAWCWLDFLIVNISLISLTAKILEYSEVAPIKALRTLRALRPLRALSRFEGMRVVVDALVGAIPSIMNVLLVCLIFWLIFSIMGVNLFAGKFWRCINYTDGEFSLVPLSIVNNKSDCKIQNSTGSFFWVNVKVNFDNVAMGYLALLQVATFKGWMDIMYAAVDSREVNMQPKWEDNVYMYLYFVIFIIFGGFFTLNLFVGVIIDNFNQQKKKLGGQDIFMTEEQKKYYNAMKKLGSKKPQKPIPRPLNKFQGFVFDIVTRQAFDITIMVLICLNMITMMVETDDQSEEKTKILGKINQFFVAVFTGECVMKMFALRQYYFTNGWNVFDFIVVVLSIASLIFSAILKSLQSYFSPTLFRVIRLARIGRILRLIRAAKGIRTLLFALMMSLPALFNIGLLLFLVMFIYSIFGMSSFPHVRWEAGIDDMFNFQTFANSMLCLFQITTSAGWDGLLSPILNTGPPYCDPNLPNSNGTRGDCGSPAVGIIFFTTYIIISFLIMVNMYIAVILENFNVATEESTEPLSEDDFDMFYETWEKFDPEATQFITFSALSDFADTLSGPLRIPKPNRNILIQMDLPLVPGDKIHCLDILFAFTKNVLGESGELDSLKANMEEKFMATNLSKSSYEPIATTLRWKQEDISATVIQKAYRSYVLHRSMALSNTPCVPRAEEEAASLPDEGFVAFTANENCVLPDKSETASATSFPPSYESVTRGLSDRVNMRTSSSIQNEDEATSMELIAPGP

In the case of `CS(=N)(=O)c1cc(NC(=O)c2cc3ccccc3nc2N2CCCC(F)(F)CC2)ccn1` (centres unmarked) [Example 26, 2-(4,4-difluoroazepan-1-yl)-N-(2-(S-methylsulfonimidoyl)pyridin-4-yl)quinoline-3-carboxamide], the solubility (kinetic) (in general, solubility judged after dilution from a stock solution rather than from solid) at 2 h in data set [1] worked out at 127 µM (≈ 58.4 µg/mL). Moreover, the inhibition (commonly the drop in the measured response relative to a control, in per cent) at 0.1 µM in data set [2] (Method 1, CHO-hNav1.8) is 91.5%. For the same compound, the half-life at 1 µM in data set [3] was found to be 1.17 h. Moreover, the IC50 – broadly, the concentration needed to halve the response being measured – in data set [4] stood at 8 nM.

For `CS(=N)(=O)c1cc(NC(=O)c2cc3cc(F)c(F)cc3nc2N2CCCC(F)(F)CC2)ccn1` (centres unmarked) [Example 27, 2-(4,4-difluoroazepan-1-yl)-6,7-difluoro-N-(2-(S-methylsulfonimidoyl)pyridin-4-yl)quinoline-3-carboxamide], the solubility (kinetic) at 2 h in data set [1] was 78.8 µM (≈ 39 µg/mL). Further, the inhibition at 0.1 µM in data set [2] (Method 1, CHO-hNav1.8) was 97%. Further, in data set [3], the half-life at 1 µM is 2.26 h.

Take `COc1cc2cc(C(=O)Nc3ccnc(C(N)=O)c3)c(N3CCCC(F)(F)CC3)nc2cc1OC` [Example 24, N-(2-carbamoylpyridin-4-yl)-2-(4,4-difluoroazepan-1-yl)-6,7-dimethoxyquinoline-3-carboxamide]: in data set [1], the solubility (kinetic) at 2 h is 9.88 µM (≈ 4.8 µg/mL). For the same compound, in data set [2] (Method 1, CHO-hNav1.8), the inhibition at 0.1 µM worked out at 51%. Also, in data set [3], the half-life at 1 µM was more than 2.42 h. Further, the IC50 in data set [4] was found to be 97.1 nM.

Consider `Cc1ccc2cc(C(=O)Nc3ccnc(C(N)=O)c3)c(N3CCCC(F)(F)CC3)nc2c1` [Example 23, N-(2-carbamoylpyridin-4-yl)-2-(4,4-difluoroazepan-1-yl)-7-methylquinoline-3-carboxamide], for which the inhibition at 0.1 µM in data set [2] (Method 1, CHO-hNav1.8) stood at 97.2%. Further, in data set [4], the IC50 is 1.5 nM.

`NS(=O)(=O)c1cccc(NC(=O)c2cc3ccccc3nc2Oc2ccc(F)cc2Cl)c1` [Example 30, 2-(2-chloro-4-fluorophenoxy)-N-(3-sulfamoylphenyl)quinoline-3-carboxamide, reference compound] showed a kinetic solubility at 2 h in data set [1] of less than 0.18 µM. Also, the inhibition at 0.1 µM in data set [2] (Method 1, CHO-hNav1.8) was 94%. In data set [4], the IC50 worked out at 9.5 nM.

Compound `NC(=O)c1cccc(NC(=O)c2nc3ccccc3nc2N2CCCC(F)(F)CC2)c1` [Example 07, N-(3-carbamoylphenyl)-3-(4,4-difluoroazepan-1-yl)quinoxaline-2-carboxamide] registered a solubility (kinetic) at 2 h in data set [1] of 52.7 µM (≈ 22.4 µg/mL). In data set [2] (10 nM, Method 1, CHO-hNav1.8), the inhibition at 0.01 µM stood at 48.3%. In addition, the IC50 in data set [2] is 14.7 nM. The half-life at 1 µM in data set [3] was 1.06 h.

Consider `CNS(=O)(=O)c1cc(NC(=O)c2cc3ccccc3nc2N2CCCC(F)(F)CC2)ccn1` [Example 28, 2-(4,4-difluoroazepan-1-yl)-N-(2-(N-methylsulfamoyl)pyridin-4-yl)quinoline-3-carboxamide], for which the solubility (kinetic) at 2 h in data set [1] was determined as 131 µM (≈ 62.3 µg/mL). Also, the inhibition at 0.1 µM in data set [2] (Method 1, CHO-hNav1.8) is 94.2%. Further, the concentration for half-maximal inhibition (IC50) in data set [4] turned out to be 11.4 nM.

In the case of `CNS(=O)(=O)c1cc(NC(=O)c2cc3cc(F)c(F)cc3nc2N2CCCC(F)(F)CC2)ccn1` [Example 29, 2-(4,4-difluoroazepan-1-yl)-6,7-difluoro-N-(2-(N-methylsulfamoyl)pyridin-4-yl)quinoline-3-carboxamide], the solubility (kinetic) at 2 h in data set [1] was less than 1.56 µM. Further, in data set [2] (Method 1, CHO-hNav1.8), the inhibition at 0.1 µM is 83.7%.

Regarding `NS(=O)(=O)c1cc(NC(=O)c2nc3ccccc3nc2N2CCCC(F)(F)CC2)ccn1` [Example 06, 3-(4,4-difluoroazepan-1-yl)-N-(2-sulfamoylpyridin-4-yl)quinoxaline-2-carboxamide], the kinetic solubility at 2 h in data set [1] came to 0.39 µM (≈ 0.18 µg/mL). The inhibition at 0.01 µM in data set [2] (CHO) was determined as 77.6%. Moreover, the IC50 in data set [2] was 3.1 nM. Further, the half-life at 1 µM in data set [3] was more than 2.42 h.

In turn, `Cc1cc(F)ccc1Oc1cc(C(F)(F)F)ccc1C(=O)Nc1cc[nH]c(=O)c1` [Example 32, 2-(4-fluoro-2-methylphenoxy)-N-(2-carbonyl-1,2-dihydropyridin-4-yl)-4-(trifluoromethyl)benzamide, reference compound] returned a kinetic solubility at 2 h in data set [1] of less than 1.56 µM. In addition, the inhibition at 0.01 µM in data set [2] (10 nM, Method 1, CHO-hNav1.8) was found to be 38.1%. Further, the inhibition at 0.1 µM in data set [2] (Method 1, CHO-hNav1.8) amounted to 84.7%.
